Results reported in patent US20240101564A1, “SALTS OF A PI3Kdelta INHIBITOR, CRYSTALLINE FORMS, METHODS OF PREPARATION, AND USES THEREFORE” (BeiGene Switzerland GmbH, priority 2021, published 2024).

Assays:
[1] = DVS (water sorption) test of fumarate crystal forms; format: physicochemical; settings: for water uptake in DVS: humidity increased
Procedure: DVS testing on fumarate Type A was performed starting from 25° C./70% RH.
DVS test on Type D was started at 25° C./60% RH to avoid any unnecessary form change for the starting form. […] Thus, fumarate Type D was speculated to be stable lower than 60% RH.
DVS testing on fumarate Type F was started at 25° C./80% RH to avoid any unnecessary form change for the starting form.

[2] = solid-state stability tests (HPLC and XRPD after storage for one week); format: physicochemical; settings: for HPLC (area %), One week / XRPD form after storage (form change) / difference of HPLC purity after storage: 25° C./60% RH and 40° C./75% RH, one week
Procedure: Fumarate Type D and Type F were further evaluated by solid-state stability tests under 25° C./60% RH and 40° C./75% RH for one week.
In the experiments, about 15 mg of solids was added into an HPLC vial, which was then sealed with parafilm and pricked with 10 holes. Place the vial under corresponding condition and test the solids by HPLC and XRPD after one week.

[3] = pharmacokinetic properties of different salts in Sprague-Dawley rats after oral administration; format: in vivo; settings: male SD rats, single oral 10 mg·kg^−1 (as free base), 0.5% MC, fasted
Procedure: The oral dosing solution was prepared as follows: […] of a test compound was weighed and dispersed in 10 mL of 0.5% methyl cellulose (MC). The final concentration of the test compound is 1 mg·mL^−1 (Calculated by free freebase).
Male Sprague-Dawley rats (also summarized in Table 27) were housed in solid bottom polypropylene cages with sterilized bedding and receive sterilized diet and sterilized water. The room was controlled and monitored for humidity (targeted mean range 40% to 70%) and temperature (targeted mean range 18° C. to 26° C.) with 10 to 20 air changes/hour. The light cycle was maintained at 12-h light and 12-h dark. Only animals that appeared to be healthy were selected for this study based on overall health, body weight, or other relevant information.
The male Sprague-Dawley rats were fasted overnight with free access to drinking water prior to treatment. On day 1, the animals were weighed and actual dose volume for each animal was calculated using the formula below: […]
Three rats for each group were given a single oral dose of 10 mg·kg^−1. The dosing solutions were freshly prepared prior to dose administration. The actual body weights and actual volume injected were recorded accordingly. Four hours after dosing, the rats were allowed to intake food.
Blood samples (˜150 μL) were collected at different times from the jugular vein catheter into EDTA-K2 coated tubes. Whole blood was processed by centrifugation at 3000 g for 10 min. Plasma samples were collected and kept at −80° C. freezer prior to analysis. The blood sampling time was recorded accordingly.
The dose samples of PO were diluted with MeOH:H2O (4:1, v/v) to achieve the concentration of 2 μg·mL^−1, respectively. Then, 2.5 μL of the diluted samples were added with 47.5 μL blank plasma, and then were handled as the plasma sample procedure. An aliquot of 10 μL of the mixture was injected into the LC-MS/MS system.

[4] = long-term stability, 3-month experiment; format: physicochemical
PI3Kδ = PI3Kδ (Homo sapiens, UniProt O00329); test: PI3Kδ inhibition in biochemical and cellular assays
cancer cell lines = test: cellular growth of cancer cell lines in vitro; format: cell-based; settings: several cancer cell lines in vitro
tumor xenografts = tumor xenografts engrafted subcutaneously or systemically in mice; format: in vivo; settings: xenografts subcutaneous or systemic in mice

PI3Kδ, sequence (O00329 whole entry, species assumed): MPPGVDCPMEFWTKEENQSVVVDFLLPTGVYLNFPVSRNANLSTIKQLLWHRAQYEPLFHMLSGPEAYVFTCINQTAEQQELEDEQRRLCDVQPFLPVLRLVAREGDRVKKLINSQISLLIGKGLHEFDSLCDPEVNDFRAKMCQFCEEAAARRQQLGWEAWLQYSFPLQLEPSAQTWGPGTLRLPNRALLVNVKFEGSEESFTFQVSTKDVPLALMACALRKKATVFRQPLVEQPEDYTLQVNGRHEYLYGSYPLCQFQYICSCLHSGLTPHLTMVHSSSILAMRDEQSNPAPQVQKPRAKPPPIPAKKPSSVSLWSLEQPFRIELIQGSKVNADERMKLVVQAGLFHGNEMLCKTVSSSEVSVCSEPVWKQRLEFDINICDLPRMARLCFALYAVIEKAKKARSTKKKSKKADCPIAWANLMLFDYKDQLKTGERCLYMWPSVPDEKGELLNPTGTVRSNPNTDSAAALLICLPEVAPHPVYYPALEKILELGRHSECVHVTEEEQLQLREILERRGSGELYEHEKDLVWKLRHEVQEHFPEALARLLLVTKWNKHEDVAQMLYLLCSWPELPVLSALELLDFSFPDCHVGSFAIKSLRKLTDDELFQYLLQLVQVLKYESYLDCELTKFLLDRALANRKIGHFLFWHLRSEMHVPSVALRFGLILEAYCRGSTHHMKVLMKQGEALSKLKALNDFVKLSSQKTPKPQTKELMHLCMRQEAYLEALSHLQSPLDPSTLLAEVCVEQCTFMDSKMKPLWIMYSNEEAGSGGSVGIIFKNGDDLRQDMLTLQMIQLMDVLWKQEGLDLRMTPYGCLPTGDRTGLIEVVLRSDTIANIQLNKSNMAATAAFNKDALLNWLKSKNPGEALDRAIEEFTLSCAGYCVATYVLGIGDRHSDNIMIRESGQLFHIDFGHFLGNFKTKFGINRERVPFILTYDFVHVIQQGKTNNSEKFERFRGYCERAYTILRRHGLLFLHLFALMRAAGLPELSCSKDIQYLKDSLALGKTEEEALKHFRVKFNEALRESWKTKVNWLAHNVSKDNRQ
PI3Kδ, sequence (P27986 whole entry partner, species assumed): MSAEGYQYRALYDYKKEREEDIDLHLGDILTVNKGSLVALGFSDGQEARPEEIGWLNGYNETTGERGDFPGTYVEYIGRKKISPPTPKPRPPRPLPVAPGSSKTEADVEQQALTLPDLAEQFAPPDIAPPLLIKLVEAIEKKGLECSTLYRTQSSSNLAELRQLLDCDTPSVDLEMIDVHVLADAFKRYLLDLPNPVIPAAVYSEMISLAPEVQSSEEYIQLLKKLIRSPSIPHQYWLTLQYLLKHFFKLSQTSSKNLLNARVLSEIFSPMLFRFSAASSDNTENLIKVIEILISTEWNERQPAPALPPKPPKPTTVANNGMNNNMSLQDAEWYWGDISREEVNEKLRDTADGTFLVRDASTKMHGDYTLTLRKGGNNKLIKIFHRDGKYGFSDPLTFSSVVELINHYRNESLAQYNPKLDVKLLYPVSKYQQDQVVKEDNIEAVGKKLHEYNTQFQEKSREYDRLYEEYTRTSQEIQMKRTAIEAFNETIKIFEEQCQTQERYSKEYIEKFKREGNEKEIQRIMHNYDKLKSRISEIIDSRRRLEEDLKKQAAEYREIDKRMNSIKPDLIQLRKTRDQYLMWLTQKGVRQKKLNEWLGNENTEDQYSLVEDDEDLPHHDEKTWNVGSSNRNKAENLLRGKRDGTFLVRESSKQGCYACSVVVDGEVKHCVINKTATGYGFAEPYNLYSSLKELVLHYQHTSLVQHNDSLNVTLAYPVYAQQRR

Cc1nc([C@@H](C)c2cc(Cl)c(F)c(C(=O)NCCN3CCN(C)CC3)c2OC(C)C)n2ccnc(N)c12.O=C(O)/C=C/C(=O)O [Fumarate Type D]
humidity below which the form is speculated to be stable ([1]; from DVS, 25° C.): lower than 60 % RH
mass change in DVS ([1]; started at 25° C./60% RH, 60% to 0% RH, then 0% to 70% RH): ~1.6%
HPLC (area %), One week [2]: 99.9 area %
XRPD form after storage (form change) [2]: Type D
difference of HPLC purity after storage [2]: no obvious difference of HPLC purity
XRPD form after storage (form change) ([2]; listed as fumarate Type D): no form change
HPLC Area (%), RRT 1.00 ([2]; 25° C./60% RH for 1 week): 99.92%
HPLC Area (%), RRT 1.08 ([2]; 25° C./60% RH for 1 week): 0.02%
HPLC Area (%), RRT 1.13 ([2]; 25° C./60% RH for 1 week): 0.06%
HPLC Area (%), RRT 1.00 ([2]; 40° C./75% RH for 1 week): 99.90%
HPLC Area (%), RRT 1.08 ([2]; 40° C./75% RH for 1 week): 0.03%
HPLC Area (%), RRT 1.13 ([2]; 40° C./75% RH for 1 week): 0.07%
HPLC (area %), Initial ([2]; Initial): 99.9 area %
HPLC Area (%), RRT 1.00 ([2]; Initial): 99.92%
HPLC Area (%), RRT 1.08 ([2]; Initial): 0.03%
HPLC Area (%), RRT 1.13 ([2]; Initial): 0.05%
AUC0-inf [3]: 356 ng·h/mL
AUC0-t [3]: 210 ng·h/mL
Cmax [3]: 48.3 ng/mL
F % (n = 3) [3]: 13.6%
Kel [3]: 0.0687 h⁻¹
t1/2 [3]: 11 h
tmax [3]: 2.45 h
long-term stability [4]: excellent long-term stability

Cc1nc([C@@H](C)c2cc(Cl)c(F)c(C(=O)NCCN3CCN(C)CC3)c2OC(C)C)n2ccnc(N)c12.Cc1nc([C@@H](C)c2cc(Cl)c(F)c(C(=O)NCCN3CCN(C)CC3)c2OC(C)C)n2ccnc(N)c12.O=C(O)C(O)C(O)C(=O)O.O=C(O)C(O)C(O)C(=O)O.O=C(O)C(O)C(O)C(=O)O [D-Tartarate (acid/base = 1.5:1)]
AUC0-inf [3]: 147.7 ng·h/mL
AUC0-t [3]: 54.9 ng·h/mL
Cmax [3]: 14.8 ng/mL
F % (n = 3) [3]: 3.4%
Kel [3]: 0.06 h⁻¹
t1/2 [3]: 12 h
tmax [3]: 2.7 h

Cc1nc([C@@H](C)c2cc(Cl)c(F)c(C(=O)NCCN3CCN(C)CC3)c2OC(C)C)n2ccnc(N)c12.O=C(O)/C=C/C(=O)O [Fumarate Type A]
water uptake in DVS ([1]; started from 25° C./70% RH): ~21%

Cc1nc([C@@H](C)c2cc(Cl)c(F)c(C(=O)NCCN3CCN(C)CC3)c2OC(C)C)n2ccnc(N)c12 [Compound A, (S)-3-(1-(8-amino-1-methylimidazo[1,5-a]pyrazin-3-yl)ethyl)-5-chloro-6-fluoro-2-isopropoxy-N-(2-(4-methylpiperazin-1-yl)ethyl)benzamide]
inhibition of PI3Kδ (PI3Kδ): potent and selective inhibitor
inhibition of cellular growth (cancer cell lines): inhibits cellular growth
antitumor effects (tumor xenografts): dose-dependent antitumor effects

Cc1nc([C@@H](C)c2cc(Cl)c(F)c(C(=O)NCCN3CCN(C)CC3)c2OC(C)C)n2ccnc(N)c12.O=C(O)/C=C/C(=O)O [Fumarate Type F]
water uptake in DVS ([1]; started at 25° C./80% RH): ~17%
HPLC (area %), One week [2]: 99.9 area %
XRPD form after storage (form change) [2]: Type F
difference of HPLC purity after storage [2]: no obvious difference of HPLC purity
XRPD form after storage (form change) ([2]; listed as fumarate Type F): no form change
HPLC Area (%), RRT 1.00 ([2]; 25° C./60% RH for 1 week): 99.88%
HPLC Area (%), RRT 1.06 ([2]; 25° C./60% RH for 1 week): 0.05%
HPLC Area (%), RRT 1.08 ([2]; 25° C./60% RH for 1 week): 0.02%
HPLC Area (%), RRT 1.13 ([2]; 25° C./60% RH for 1 week): 0.05%
HPLC Area (%), RRT 1.00 ([2]; 40° C./75% RH for 1 week): 99.91%
HPLC Area (%), RRT 1.08 ([2]; 40° C./75% RH for 1 week): 0.03%
HPLC Area (%), RRT 1.13 ([2]; 40° C./75% RH for 1 week): 0.06%
HPLC (area %), Initial ([2]; Initial): 99.9 area %
HPLC Area (%), RRT 1.00 ([2]; Initial): 99.95%
HPLC Area (%), RRT 1.13 ([2]; Initial): 0.05%
